From patent US8470526B2, “Method of suppressing human immunodeficiency virus (HIV) replication in a subject by administering a liver X receptor (LXR) agonist” (The George Washington University, priority 2005, dated 2013) come the findings set out here.

What all share (type): cell-based
In one assay the test system is HIV-1 ADA virions. Kind of assay: Analysis of virion-associated cholesterol ([3H]cholesterol incorporation into virions). Conditions: virions from macrophages treated with 500 nM TO-901317 versus untreated cells; normalized according to p24. Here is the method:
C—Incorporation of [^3H]cholesterol into virions produced by LXR agonist-treated and untreated (control) cells was measured in triplicate and results (mean±SD) are presented relative to cholesterol in the virions produced by control cells; *p<0.001.
(§1) To determine whether impairment of cholesterol efflux has a role in HIV biology, we compared infectivity of HIV virions produced from monocyte-derived macrophages stimulated or not with an LXR agonist, TO-901317. We hypothesized that if impairment of cholesterol efflux is a specific mechanism to increase HIV replication, then agents counteracting this effect should have anti-HIV activity. LXR agonists up-regulate expression of ABCA1 at a transcriptional level and stimulate cholesterol efflux from various cell types, including human monocyte-derived macrophages ([47] and FIG. 9A). […] Virions were collected from TO-901317-treated and untreated cells, adjusted according to p24 content, and analyzed for infectivity using indicator P4-CCR5 cells.
Analysis of virion-associated cholesterol. […] Culture supernatants were collected every 3 days over the period of 2 weeks, pooled, and virions were pelleted by ultracentrifugation, normalized according to p24 value, and the amount of incorporated [^3H]cholesterol counted on a beta-counter.

In the next assay the test system is HIV-1 ADA. Kind of assay: Infectivity of virions from HIV-1 ADA-infected macrophages on indicator P4-CCR5 cells. Particulars: TO-901317 500 nM from day 7 after infection for 7 more days; virions adjusted according to p24; versus virions from untreated cells. As to the method:
(§2) Human monocyte-derived macrophages were infected with HIV-1 ADA or mock-infected, and 7 days after infection were treated or not with LXR agonist, TO-901317 (500 nM), for 7 more days.
B—Virions were collected from culture supernatants of LXR agonist-treated and untreated (control) cells on day 10 and day 14 (pooled together), adjusted according to p24 content and analyzed for infectivity on indicator P4-CCR5 cells. Experiment was performed in triplicate and results (mean±SD) are presented as percent infectivity of virions produced by control cells; *p<0.001.
To determine whether impairment of cholesterol efflux has a role in HIV biology, we compared infectivity of HIV virions produced from monocyte-derived macrophages stimulated or not with an LXR agonist, TO-901317. We hypothesized that if impairment of cholesterol efflux is a specific mechanism to increase HIV replication, then agents counteracting this effect should have anti-HIV activity. […] Virions were collected from TO-901317-treated and untreated cells, adjusted according to p24 content, and analyzed for infectivity using indicator P4-CCR5 cells.
Infectivity assay. Virus infectivity was analyzed using P4-CCR5 indicator cells that express B-galactosidase under control of HIV-1 LTR. […] The plate was incubated at 37° C. for 1.5 hours and OD readings were taken at 420 nm.

The subject of assay [1] is Human monocyte-derived macrophages infected with HIV-1 ADA. Kind of assay: Cholesterol efflux to apoA-I from HIV-1 ADA-infected monocyte-derived macrophages. Particulars: TO-901317 500 nM added at day 7 after infection, kept 7 more days; efflux measured on day 21 after infection. Here is the method: as §2
A—Cholesterol efflux to apoA-I was measured on day 21 after infection. *p<0.01 (versus uninfected cells not treated with TO-901317), *p<0.01 (versus HIV-infected cells not treated with TO-901317).
as §1
Cholesterol and phospholipid efflux from RAW264.7 cells. […] For cholesterol efflux analysis, aliquots of medium and cells were counted. […] The efflux was calculated as radioactivity in the medium/(radioactivity in the medium+radioactivity remaining in the cells)×100%. […]

As to `O=S(=O)(c1ccccc1)N(CC(F)(F)F)c1ccc(C(O)(C(F)(F)F)C(F)(F)F)cc1` [TO-901317], in the assay on HIV-1 ADA virions, the virion-associated cholesterol entry is given as “significantly diminished”. Besides, in the assay with HIV-1 ADA, the “reduction of infectivity of virions produced from macrophages treated with LXR agonist” value was “about 80%”. Also, in assay [1], the “effect on impairment of cholesterol efflux to apoA-I by HIV-1 infection” value is “prevented the impairment of cholesterol efflux”.
